The values that follow come from US20220348558A1, “INHIBITORS OF ENCEPHALITIC ALPHAVIRUSES” (priority 2019, published 2022).

The term EC50 denotes the midpoint of the concentration-response curve. A word on the melting point: it is the temperature of the solid-liquid transition.

Structures are written as SMILES.

In data set [1] the test system is EEEV FL93-939. The data set is described as follows: microbe, parasite or virus in culture. Format: cell-based. The following applies: Eastern equine encephalitis virus, Vero 76, 48 h, read-out: EEEV FL93-939 EC50.
Data set [2] deals with VEEV TC83. The data set is described as follows: microbe, parasite or virus in culture. The following applies: Venezuelan equine encephalitis virus, Vero 76, 48 h, read-out: VEEV TC83 EC50 nM. Format: cell-based.
Data set [3] has as its system WEEV California. The data set is described as follows: microbe, parasite or virus in culture. Format: cell-based. The settings on record: Western equine encephalitis virus, Vero 76, 48 h, read-out: WEEV California EC50 nM.
The subject of data set [4] is EEEV BeAr 436087. The data set is described as follows: microbe, parasite or virus in culture. Format: cell-based. The settings on record: Eastern equine encephalitis virus, Vero 76, 48 h, read-out: EEEV BeAr 436087 EC50 nM.

Turning to `COc1ccc(-n2c([C@H]3C[C@H](F)CN3)nc3c(C)cc([N+](=O)[O-])cc3c2=O)cc1` [Example 61, 2-((2R,4S)-4-fluoropyrrolidin-2-yl)-3-(4-methoxyphenyl)-8-methyl-6-nitroquinazolin-4 (3H)-one], the melting point was in the range of 183.06 to 185.34 °C. The EC50 in data set [1] is 51 to 150 nM. For the same molecule, in data set [2], the EC50 lay in the range of 1 to 50 nM. Moreover, the EC50 in data set [3] lay within 51 to 150 nM. Besides, the EC50 in data set [4] fell in the range of 51 to 150 nM.
